From BigSolDB 2.1

O=[N+]([O-])c1cc([N+](=O)[O-])c(Cl)cc1Cl
Conditions	solubility (mole fraction)
in 1,2-dichloroethane, 298.15 K	0.138
in 1,2-dichloroethane, 303.15 K	0.156
in 1,2-dichloroethane, 308.15 K	0.176
in 1,2-dichloroethane, 313.15 K	0.199
in 1,2-dichloroethane, 318.15 K	0.224
in 1,2-dichloroethane, 323.15 K	0.251
in 1,2-dichloroethane, 328.15 K	0.282
in 1,2-dichloroethane, 333.15 K	0.316
in DMF, 298.15 K	0.286
in DMF, 303.15 K	0.308
in DMF, 308.15 K	0.329
in DMF, 313.15 K	0.353
in DMF, 318.15 K	0.378
in DMF, 323.15 K	0.406
in DMF, 328.15 K	0.436
in DMF, 333.15 K	0.469
in DMSO, 298.15 K	0.192
in DMSO, 303.15 K	0.215
in DMSO, 308.15 K	0.241
in DMSO, 313.15 K	0.269
in DMSO, 318.15 K	0.3
in DMSO, 323.15 K	0.332
in DMSO, 328.15 K	0.368
in DMSO, 333.15 K	0.408
in NMP, 298.15 K	0.362
in NMP, 303.15 K	0.381
in NMP, 308.15 K	0.4
in NMP, 313.15 K	0.421
in NMP, 318.15 K	0.444
in NMP, 323.15 K	0.468
in NMP, 328.15 K	0.495
in NMP, 333.15 K	0.524
in acetone, 288.15 K	0.169
in acetone, 293.15 K	0.187
in acetone, 298.15 K	0.206
in acetone, 303.15 K	0.227
in acetone, 308.15 K	0.249
in acetone, 313.15 K	0.273
in acetone, 318.15 K	0.298
in acetone, 323.15 K	0.326
in acetonitrile, 298.15 K	0.129
in acetonitrile, 303.15 K	0.154
in acetonitrile, 308.15 K	0.183
in acetonitrile, 313.15 K	0.217
in acetonitrile, 318.15 K	0.254
in acetonitrile, 323.15 K	0.296
in acetonitrile, 328.15 K	0.344
in acetonitrile, 333.15 K	0.397
in chloroform, 293.15 K	0.108
in chloroform, 298.15 K	0.128
in chloroform, 303.15 K	0.149
in chloroform, 308.15 K	0.175
in chloroform, 313.15 K	0.205
in chloroform, 318.15 K	0.238
in chloroform, 323.15 K	0.274
in chloroform, 328.15 K	0.319
in dichloromethane, 278.15 K	0.0915
in dichloromethane, 283.15 K	0.106
in dichloromethane, 288.15 K	0.121
in dichloromethane, 293.15 K	0.138
in dichloromethane, 298.15 K	0.158
in dichloromethane, 303.15 K	0.181
in dichloromethane, 308.15 K	0.205
in ethanol, 298.15 K	0.00702
in ethanol, 303.15 K	0.00858
in ethanol, 308.15 K	0.0104
in ethanol, 313.15 K	0.0126
in ethanol, 318.15 K	0.0156
in ethanol, 323.15 K	0.0189
in ethanol, 328.15 K	0.0232
in ethanol, 333.15 K	0.0282
in ethyl acetate, 298.15 K	0.17
in ethyl acetate, 303.15 K	0.189
in ethyl acetate, 308.15 K	0.207
in ethyl acetate, 313.15 K	0.228
in ethyl acetate, 318.15 K	0.251
in ethyl acetate, 323.15 K	0.277
in ethyl acetate, 328.15 K	0.306
in ethyl acetate, 333.15 K	0.336
in isopropanol, 298.15 K	0.00322
in isopropanol, 303.15 K	0.00429
in isopropanol, 308.15 K	0.00581
in isopropanol, 313.15 K	0.00763
in isopropanol, 318.15 K	0.01
in isopropanol, 323.15 K	0.0131
in isopropanol, 328.15 K	0.0173
in isopropanol, 333.15 K	0.0223
in methanol, 298.15 K	0.00929
in methanol, 303.15 K	0.0112
in methanol, 308.15 K	0.0135
in methanol, 313.15 K	0.0163
in methanol, 318.15 K	0.0197
in methanol, 323.15 K	0.0236
in methanol, 328.15 K	0.0284
in methanol, 333.15 K	0.0341
in n-butanol, 298.15 K	0.00624
in n-butanol, 303.15 K	0.00794
in n-butanol, 308.15 K	0.0101
in n-butanol, 313.15 K	0.0128
in n-butanol, 318.15 K	0.016
in n-butanol, 323.15 K	0.0201
in n-butanol, 328.15 K	0.025
in n-butanol, 333.15 K	0.0308
in tetrachloromethane, 298.15 K	0.0153
in tetrachloromethane, 303.15 K	0.0207
in tetrachloromethane, 308.15 K	0.0276
in tetrachloromethane, 313.15 K	0.0368
in tetrachloromethane, 318.15 K	0.049
in tetrachloromethane, 323.15 K	0.0638
in tetrachloromethane, 328.15 K	0.0835
in tetrachloromethane, 333.15 K	0.108
in toluene, 298.15 K	0.201
in toluene, 303.15 K	0.225
in toluene, 308.15 K	0.25
in toluene, 313.15 K	0.277
in toluene, 318.15 K	0.307
in toluene, 323.15 K	0.34
in toluene, 328.15 K	0.374
in toluene, 333.15 K	0.413
